Paper PMC9769880, “Diverse Sensory Repertoire of Paralogous Chemoreceptors Tlp2, Tlp3, and Tlp4 in Campylobacter jejuni” (Microbiology Spectrum, 2022)
Read-outs that look alike come from different tables or passages of the source.

Key:
[1] = target: T1, Tlp4 (Campylobacter jejuni, UniProt Q0PBP3); experiment: biochemical; format: binding; conditions: read-out: Tlp4 Affinity
Experimental: (§1) His-tagged proteins (Tlp2, -3, and -4) were prepared as previously described ([11]) DNA segments encoding the periplasmic sensory domains (33 to 286 amino acids) of Tlp2 and (38 to 297 amino acids) of Tlp4 were amplified (see Table S7), ligated into pGEM-T Easy (Promega) and subcloned into pET-19b (Novagen) (see Table S6). Recombinant proteins were expressed in E. coli BL21(DE3) using 1 mM IPTG (isopropyl-β-D-thiogalactopyranoside) and purified using His-select-nickel chromatography as described previously ([8], [11]). The purity of the proteins was confirmed by SDS-PAGE and Western blot analysis with anti-His antibodies (Bio-Rad). Protein concentrations were determined using a NanoDrop spectrophotometer (Thermo Fisher).
(§2) Surface plasmon resonance (SPR) experiments were performed as described previously ([10], [11]) with the following modifications. Briefly, purified proteins were diluted to 0.15 μM in sodium acetate (pH 4.0) and immobilized onto an active flow cell of a CM5 sensor chip with a flow rate of 5 μL/min for 7 min of contact time using a standard amine coupling protocol. Immobilized protein levels for all three proteins ranged from 6028.3 to 9779.3 response units (RU) providing a minimum expected response maximum (RMax) between 20 and 50 RU for the small molecules tested. […] All ligands were prepared in PBS (pH 7.2) and serially diluted from 0.2 to 0.0125 mM. A 10-min dissociation period was allocated after the introduction of each analyte. SPR experiments were performed in single-cycle kinetics mode using the BIAcore S200 biosensor system (Cytiva) at 25°C in PBS (pH 7.2) at a flow rate of 30 μL/min. The equilibrium dissociation constant (KD) for each analyte was determined using BIAcore S200 Evaluation software with a report point 4 s after the injection stop to account for the bulk transfer of the small molecule against a large amount of immobilized protein (as shown in Fig. S5).

[2] = target: T2, Tlp2 (Campylobacter jejuni, UniProt Q0PBZ3); experiment: biochemical; format: binding; conditions: read-out: Tlp2 Affinity
T2 sequence (Q0PBZ3 entry or part of it): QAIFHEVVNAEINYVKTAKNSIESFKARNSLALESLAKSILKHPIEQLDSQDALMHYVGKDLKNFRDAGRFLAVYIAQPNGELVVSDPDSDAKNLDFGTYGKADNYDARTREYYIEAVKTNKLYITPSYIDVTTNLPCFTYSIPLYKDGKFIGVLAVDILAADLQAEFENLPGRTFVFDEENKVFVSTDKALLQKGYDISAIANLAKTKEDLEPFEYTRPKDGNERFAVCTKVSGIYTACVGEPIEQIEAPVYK
Experimental: as §1, §2

[3] = target: T3, Tlp3 (Campylobacter jejuni, UniProt Q0P864); experiment: STD NMR spectroscopy of arginine in complex with Tlp3; format: binding; conditions: 283K, 600.13 MHz; H3/H3′ and H5/H5′
T3 sequence (Q0P864 entry or part of it): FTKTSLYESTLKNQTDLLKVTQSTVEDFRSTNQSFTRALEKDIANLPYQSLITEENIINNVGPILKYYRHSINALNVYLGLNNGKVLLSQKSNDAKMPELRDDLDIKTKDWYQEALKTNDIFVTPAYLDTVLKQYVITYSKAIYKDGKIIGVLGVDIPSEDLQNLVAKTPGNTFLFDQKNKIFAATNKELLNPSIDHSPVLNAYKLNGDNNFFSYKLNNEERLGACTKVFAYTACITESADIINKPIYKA
Experimental: STD NMR experiments were performed as previously described in ([10]). […] A control sample was prepared in an identical manner without the addition of Tlp3. All NMR experiments were performed using 3-mm NMR tubes on a Bruker Avance 600 MHz spectrometer equipped with a 5-mm TXI probe with triple-axis gradients at 283K without sample spinning. ^1H NMR spectra were acquired with 32 scans and a 2-s relaxation delay over a spectral width of 6,000 Hz. Solvent suppression of the residual HDO peak was achieved by using a continuous low-power presaturation pulse during the relaxation delay. For all STD NMR experiments, the protein was saturated at −0.5 ppm in the aliphatic region of the spectrum and off-resonance at 33 ppm with a cascade of 40 selective Gaussian-shaped pulses of 50-ms duration (50 dB), which correlates to a strength of 190 Hz. A 100-μs delay between each soft pulse was applied, resulting in a total saturation time of ~2 s 2 K scans were acquired per sample. Data were obtained with interspersed acquisition of pseudo-two-dimensional on-resonance and off-resonance spectra in order to minimize the effects of temperature and magnet instability. On- and off-resonance spectra were processed separately, and the final STD NMR spectrum was obtained by subtracting the individual on- and off-resonance spectra, resulting in low-subtraction artifacts.

[4] = test system: Tlp3; format: cell-based, C. jejuni 11168-O
Experimental: (§3) The biological relevance of the binding specificities of the Tlp2,3,4 cluster was assessed by examining chemotactic responses of C. jejuni 11168-O tlp2, tlp3, and tlp4 wild-type (WT) and mutant strains using a nutrient-depleted chemotaxis assay. All ligands, with the exception of lysine and cysteine, interacted with Tlp2 and Tlp4 as attractants (Table 1), showing an ~1- to ~2-log decrease (P < 0.05) in migration toward the ligand compared to the WT strain.
(§4) Chemotaxis assays—the nutrient-depleted chemotaxis assay and the modified hard agar plug assay (tHAP)—were performed as previously described ([11], [34]). The chemotactic responses of all isogenic strains were compared to that of the C. jejuni 11168-O wild-type strain to distinguish between chemoattractants and chemorepellents. For the nutrient-depleted chemotaxis and modified hard agar plug (tHAP) assays, all differences were calculated as changes on a log10 scale. Controls were provided by using nonmotile (C. jejuni 81116 flaAB) and nonchemotactic (C. jejuni NCTC 11168 cheY) mutants ([69]) and mucin as negative and positive controls ([10]).

[5] = target: T4, Tlp3^LBD K149A (Campylobacter jejuni, UniProt Q0P864, K149A); conditions: compared to WT Tlp3^LBD, P < 0.05
T4 sequence (Q0P864 41-290 K149A): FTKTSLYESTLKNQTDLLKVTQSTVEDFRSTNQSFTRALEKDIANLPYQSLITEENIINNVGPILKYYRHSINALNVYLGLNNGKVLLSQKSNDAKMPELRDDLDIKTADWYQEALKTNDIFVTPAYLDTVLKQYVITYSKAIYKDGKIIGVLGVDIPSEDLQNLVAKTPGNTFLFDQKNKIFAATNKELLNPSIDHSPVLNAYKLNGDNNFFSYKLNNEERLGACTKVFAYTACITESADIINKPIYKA

[6] = target: T5, Tlp3^LBD D169A (Campylobacter jejuni, UniProt Q0P864, D169A); conditions: compared to WT Tlp3^LBD, P < 0.05
T5 sequence (Q0P864 41-290 D169A): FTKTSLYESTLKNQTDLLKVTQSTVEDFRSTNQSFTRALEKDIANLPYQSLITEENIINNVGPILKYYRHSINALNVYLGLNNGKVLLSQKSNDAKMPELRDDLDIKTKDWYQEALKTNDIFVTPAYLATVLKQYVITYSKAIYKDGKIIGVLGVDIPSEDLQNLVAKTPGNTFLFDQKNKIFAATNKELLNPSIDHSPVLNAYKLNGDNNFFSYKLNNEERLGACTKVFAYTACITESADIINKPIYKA

[7] = target: T1, Tlp4; format: binding; conditions: yes/no binding
Experimental: (§5) Glycan (>400 monosaccharides or complex glycans) and small molecule arrays containing amino acids and salts were performed as described previously by Day et al. ([67]). Briefly, 1 μg of purified recombinant protein was complexed with anti-His antibody (Cell Signaling Technology) and rabbit anti-mouse/goat anti-rabbit Alexa 555-IgG (Thermo Scientific) at a molar ratio of 1:0.5:0.25 and then incubated on the array for […] in phosphate-buffered saline (PBS). The array slides were scanned at 488/520 nm and analyzed using InnoScan 1100 with MAPIX software. All arrays were performed in triplicate with a total of 12 data points for each glycan tested; the complete data set and MIRAGE (i.e., minimum information regarding a glycomics experiment) results are shown in Tables S3 and S8.
(§6) Table S8 - Supplementary glycan microarray document based on M IRAGE guidelines. D O I:
(§7) Classification Guidelines
(§8) 1. Sample: Glycan Binding Sample
(§9) Origin: Helicobacter pylori SS1; produced as a recombinant His - tagged protein in E.
(§10) The preparation of Tlp2,3, and 4 is explained in the Materials and Methods section:
(§11) Expression and purification of the periplasmic domain of Tlp2,3, and 4.
(§12) Sample Sample is a His Tagged protein containing only the periplasmic receptor domain of the modifications full length Tlp2,3, and 4transmembrane protein.
(§13) Please see Materials and Methods: Tlps 2/3/4 bind to a range of ligands, including […]
(§14) Proteins were complexed with mouse anti- his antibody, with secondary and tertiary AlexaFluor555 antibodies (rabbit anti-mouse, goat anti-rabbit) at a molar ratio of 4:2:1.
(§15) The protein/antibody complex was incubated on ice for 10 mins prior to placing on the Assay protocol array. Arrays were performed with 1 µg of complexed protein incubated on the array for 20 min. Arrays were then washed 3 times in Array PBS (PBS + 2mM MgCl2 + 2mM CaCl2) then dried by centrifugation for 3 min at 300 x g . Scanning was performed us ing an Innopsys InnoScan 1100AL and analyzed using Mapix (Innopsys). Yes/no binding was determined by six positive replicate spots in three replicate experiments. Positive […]
(§16) Glycan Glycans in this study are listed in Table S2 and is a published library in doi:
(§17) Glycans were prepared in one of two ways for printing:
(§18) Glycan 1. Glycans (with IDs in number/letter format; e.g. 1A, 4C, 7K) were sourced modifications commercially from Dextra Laboratories, Elicityl and Carbosythn and were made into glycoamines using the protocol published in Day et al 2009 (doi:
(§19) Glycan arrays: We only use glycan arrays as a yes/no binding tool. Due to this we look only at binding that is unambiguously above background vs lack of binding above background. Average background + 3x standard deviation of the background of 20 sets of 4 spots of DMF:DMSO only spots is applied to determine if binding observed is […]
(§20) Only spots with values equal to or greater than this value were considered as binding from data of any tested slide. These values are slide […]
(§21) Data Small molecule arrays: We only use amino acid arrays as a yes/no binding tool. Due interpretation to this we look only at binding that is unambiguously above background vs lack of binding above background. Average background + 3x standard deviation of the background of 6 spots of PBS + 2% glycerol only spots is applied to determine if […]
(§22) Only spots with values equal to or greater than this value were considered as binding from data of any tested slide. These values are slide dependent. […]

[8] = target: T2, Tlp2; format: binding; conditions: yes/no binding
Experimental: as §5, §6, §7, §8, §9, §10, §11, §12, §13, §14, §15, §16, §17, §18, §19, §20, §21, §22

[9] = target: T3, Tlp3; experiment: Glycan/small molecule arrays with Tlp3; conditions: yes/no binding
Experimental: as §5, §6, §7, §8, §9, §10, §11, §12, §13, §14, §15, §16, §17, §18, §19, §20, §21, §22

[10] = test system: Tlp4; format: cell-based, C. jejuni 11168-O; conditions: nutrient-depleted chemotaxis assay
Experimental: as §3, §4

[11] = test system: Tlp2; format: cell-based, C. jejuni 11168-O; conditions: nutrient-depleted chemotaxis assay
Experimental: as §3, §4

[12] = target: T5, Tlp3^LBD D169A; experiment: biochemical
[13] = target: Tlp3^LBD D170A (Campylobacter jejuni, UniProt Q0P864); experiment: biochemical
Tlp3^LBD D170A, sequence (Q0P864 41-290 T170A): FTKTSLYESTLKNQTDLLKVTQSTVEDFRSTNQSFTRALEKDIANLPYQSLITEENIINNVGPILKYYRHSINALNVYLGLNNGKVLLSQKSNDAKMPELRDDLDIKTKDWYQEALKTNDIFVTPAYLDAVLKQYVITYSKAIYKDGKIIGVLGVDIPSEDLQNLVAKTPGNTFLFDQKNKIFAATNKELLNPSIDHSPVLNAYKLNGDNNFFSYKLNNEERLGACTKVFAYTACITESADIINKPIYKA

[14] = target: T6, Tlp3^LBD W151A (Campylobacter jejuni, UniProt Q0P864, W151A); experiment: biochemical
T6 sequence (Q0P864 41-290 W151A): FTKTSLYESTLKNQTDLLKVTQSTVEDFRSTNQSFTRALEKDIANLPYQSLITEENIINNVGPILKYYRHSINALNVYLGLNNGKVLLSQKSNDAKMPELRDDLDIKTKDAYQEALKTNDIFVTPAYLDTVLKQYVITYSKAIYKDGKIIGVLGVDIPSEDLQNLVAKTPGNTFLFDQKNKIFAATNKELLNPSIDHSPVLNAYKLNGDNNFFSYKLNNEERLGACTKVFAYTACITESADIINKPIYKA

[15] = target: Tlp3^LBD D196A (Campylobacter jejuni, UniProt Q0P864, D196A); experiment: biochemical
Tlp3^LBD D196A, sequence (Q0P864 41-290 D196A): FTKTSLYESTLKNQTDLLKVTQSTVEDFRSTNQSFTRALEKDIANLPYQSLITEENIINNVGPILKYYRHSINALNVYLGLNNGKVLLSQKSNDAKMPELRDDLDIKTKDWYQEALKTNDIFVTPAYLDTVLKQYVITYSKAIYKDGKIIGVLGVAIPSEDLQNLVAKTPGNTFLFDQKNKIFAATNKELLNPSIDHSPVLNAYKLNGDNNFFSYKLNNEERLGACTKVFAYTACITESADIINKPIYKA

[16] = target: T4, Tlp3^LBD K149A; experiment: biochemical
[17] = target: T6, Tlp3^LBD W151A; conditions: compared to WT Tlp3^LBD, P < 0.05
[18] = target: T3, Tlp3; experiment: biochemical; format: binding
Experimental: as §1, with “The purity of the proteins was confirmed by SDS-PAGE and Western blot analysis with anti-His antibodies (Bio-Rad).” left out
Surface plasmon resonance (SPR) experiments were performed as described previously ([10], [11]) with the following modifications. […] All ligands were prepared in PBS (pH 7.2) and serially diluted from 0.2 to 0.0125 mM. A 10-min dissociation period was allocated after the introduction of each analyte. SPR experiments were performed in single-cycle kinetics mode using the BIAcore S200 biosensor system (Cytiva) at 25°C in PBS (pH 7.2) at a flow rate of 30 μL/min. The equilibrium dissociation constant (KD) for each analyte was determined using BIAcore S200 Evaluation software with a report point 4 s after the injection stop to account for the bulk transfer of the small molecule against a large amount of immobilized protein (as shown in Fig. S5).

[19] = test system: C. jejuni 11168-O tlp2, tlp3, and tlp4 mutant strains; format: cell-based; conditions: positive control
[20] = SPR KD, mean ± SD, NB = no binding

T1 sequence (Q0PBP3 entry or part of it): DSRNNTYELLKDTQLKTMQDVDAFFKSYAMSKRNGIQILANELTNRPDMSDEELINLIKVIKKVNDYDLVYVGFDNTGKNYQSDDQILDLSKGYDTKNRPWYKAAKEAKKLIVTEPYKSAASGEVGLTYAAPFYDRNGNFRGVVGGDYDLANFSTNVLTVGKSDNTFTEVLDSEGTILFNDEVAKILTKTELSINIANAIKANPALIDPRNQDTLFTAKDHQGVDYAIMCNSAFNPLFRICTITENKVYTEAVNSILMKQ

## N=C(N)NCCC[C@H](N)C(=O)O [Arginine]
[1]
  Kd: > 200 µM
[2]
  Kd: > 200 µM
[3]
  saturation transfer (STD NMR): Strong saturation transfer
[4]
  Tlp3 CR (chemoresponse): R

## OC[C@H]1OC(O)[C@@H](O)[C@@H](O)[C@@H]1O (some centres unmarked) [Mannose]
[5]
  reduction in the affinity of Tlp3^LBD, substitution K149A: 2 fold
[6]
  reduction in the affinity of Tlp3^LBD, substitution D169A: 2 fold
[7]
  binding to Tlp4 on glycan/small molecule array: interacted
[8]
  binding to Tlp2 on glycan/small molecule array: interacted
[1]; [20]
  Kd: 7.8 ± 1 µM
[2]; [20]
  Kd: 12.9 ± 1.8 µM
[9]
  binding to Tlp3 on glycan/small molecule array: interacted
[10]
  chemotactic response via Tlp4: attractants
[4]; chemotaxis of mutant compared to WT strain
  Tlp3 CR (chemoresponse): R
[4]; nutrient-depleted chemotaxis assay
  chemotactic response via Tlp3: repellents
[11]
  chemotactic response via Tlp2: attractants

## Cc1ncc(C[n+]2csc(CCO)c2C)c(N)n1 [Thiamine]
[12]
  Kd: 62 ± 8.5 µM
[13]
  Kd: 30.6 ± 7.2 µM
[1]
  Kd: > 200 µM
[2]
  Kd: > 200 µM
[14]
  Kd: 73.3 ± 4.4 µM
[15]
  Kd: 36.8 ± 10 µM
[16]
  Kd: 53.8 ± 6.6 µM
[17]
  reduction in the affinity/binding of Tlp3^LBD, substitution W151A: 1 fold
[4]
  Tlp3 CR (chemoresponse): R
[18]
  Kd: 41.4 ± 5.9 µM

## mucin
[19]
  migration toward control ligand in mutants: not affected
